Laboratory results reported in patent EP3974434B1, “MACROLIDE DERIVATIVES, PREPARATION METHOD AND APPLICATION THEREOF” (Zhejiang Hisun Pharmaceutical Co., Ltd., priority 2019, dated 2020).
Where two headings read alike, the source gives them in different places.

Assays:
TRKA = biological target: T1, TRKA (Homo sapiens, UniProt P04629); experiment: HTRF KinEASE-TK kinase activity inhibition assay, TRKA; assay type: biochemical; settings: ATP 100 µM
T1 construct: purchased Carna bioscience 08-186
T1 sequence (P04629 33-796): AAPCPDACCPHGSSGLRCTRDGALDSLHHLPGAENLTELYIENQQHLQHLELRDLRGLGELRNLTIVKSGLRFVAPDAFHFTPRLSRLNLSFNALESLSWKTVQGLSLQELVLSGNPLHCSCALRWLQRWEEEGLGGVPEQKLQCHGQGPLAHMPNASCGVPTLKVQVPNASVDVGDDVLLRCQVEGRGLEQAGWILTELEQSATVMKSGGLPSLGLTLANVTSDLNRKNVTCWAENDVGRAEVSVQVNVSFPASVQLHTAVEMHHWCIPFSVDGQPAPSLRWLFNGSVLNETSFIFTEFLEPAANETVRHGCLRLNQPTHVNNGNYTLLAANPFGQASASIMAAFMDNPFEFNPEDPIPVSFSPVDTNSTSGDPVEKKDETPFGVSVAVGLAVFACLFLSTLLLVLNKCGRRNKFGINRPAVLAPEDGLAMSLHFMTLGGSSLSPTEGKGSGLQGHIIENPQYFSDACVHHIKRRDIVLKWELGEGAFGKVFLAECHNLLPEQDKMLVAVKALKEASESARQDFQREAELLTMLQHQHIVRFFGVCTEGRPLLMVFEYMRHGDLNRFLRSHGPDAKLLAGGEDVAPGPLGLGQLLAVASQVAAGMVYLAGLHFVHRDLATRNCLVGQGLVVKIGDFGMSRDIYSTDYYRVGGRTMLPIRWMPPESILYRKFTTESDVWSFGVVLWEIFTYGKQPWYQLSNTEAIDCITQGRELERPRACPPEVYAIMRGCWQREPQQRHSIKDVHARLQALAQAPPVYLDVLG
Source text: (§1) The following method was used to determine the inhibition degrees of the compounds of the present invention on the activity of recombinant human NTRK family kinase in vitro. In this method, HTRF®KinEASE-TK tyrosine kinase kit (article number: 62TK0PEB) of Cisbio company was used, and the principle of the kit was based on time-resolved fluorescence resonance energy transfer (TF-FRET), and the inhibition of the compounds on the activity of the NTRK kinase was reflected by determining a phosphorylation degree of a biotinylated polypeptide substrate mediated by NTRK kinase. For detailed experimental operation, please refer to the kit instruction. Recombinant human wild-type NTRK proteins were purchased from Carna bioscience (the article numbers were TRKA #08-186, TRKB #08-187 and TRKC #08-197 respectively), and recombinant human mutant NTRK proteins were purchased from SignalChem (the article numbers were TRKA G595R #N16-12BG-10, TRKA G667C # N16-12CG-10, and TRKC G623R # N18-12CH-10 respectively).
(§2) The experimental methods were operated according to the steps in the kit instruction, and were briefly described as follows: a test compound was first dissolved in DMSO to prepare a storage solution, and then diluted in gradient with a buffer provided in the kit. A final concentration of the test compound in the reaction system ranged from 1,000 nM to 0.004 nM. An ATP Km value concentration of each NTRK protein was determined by using an ATP solution diluted in gradient (Sangon Biotech (Shanghai) Co., Ltd., A600311). According to the Km value obtained, the ATP concentrations in the reaction system were set as 100 µM for TRKA, 10 µM for TRKB, 50 µM for TRKC, 7 µM for TRKA(G595R), 1 µM for TRKA(G667C) and 100 µM for TRKC(G623R). The reaction was carried out in a 384-well microplate. Firstly, the compound and a certain amount of corresponding NTRK protein were added to the wells and incubated for 5 minutes to 10 minutes at room temperature. Then, the ATP solution and the biotinylated polypeptide substrate solution were added to the reaction solution and incubated with shaking at room temperature for 60 minutes. Then, an anti-phosphorylated tyrosine antibody coupled with a europium compound and streptavidin coupled with modified allophycocyanin XL665 were added to the reaction, and continuously incubated with shaking at room temperature for 1 hour. After incubation, fluorescence intensity values of each well at an excitation wavelength of 304 nm, and emission wavelengths of 620 nm and 665 nM were determined in a TF-FRET mode on a microplate reader. Compared with the fluorescence intensity ratio of a control group (0.1% DMSO), the percentage inhibition rates of the compound at each concentration were calculated, and the IC50 value of the compound was obtained by performing nonlinear regression analysis for logarithmic value of the compound concentration - inhibition rate by GraphPad Prism 5 software, which can be seen in Table 1. Table 1 IC50 data of the compounds of the present invention on TRK enzyme activity inhibition

TRKA(G595R) = biological target: T2, TRKA(G595R) (Homo sapiens, UniProt P04629, G595R); experiment: HTRF KinEASE-TK kinase activity inhibition assay, TRKA(G595R); assay type: biochemical; settings: ATP 7 µM
T2 construct: purchased SignalChem N16-12BG-10
T2 sequence (P04629 33-796 G595R): as the sequence (P04629 33-796) above, with G563R counted along it
Source text: as §1, §2

TRKB = biological target: T3, TRKB (Homo sapiens, UniProt Q16620); experiment: HTRF KinEASE-TK kinase activity inhibition assay, TRKB; assay type: biochemical; settings: ATP 10 µM
T3 construct: purchased Carna bioscience 08-187
T3 sequence (Q16620 32-822): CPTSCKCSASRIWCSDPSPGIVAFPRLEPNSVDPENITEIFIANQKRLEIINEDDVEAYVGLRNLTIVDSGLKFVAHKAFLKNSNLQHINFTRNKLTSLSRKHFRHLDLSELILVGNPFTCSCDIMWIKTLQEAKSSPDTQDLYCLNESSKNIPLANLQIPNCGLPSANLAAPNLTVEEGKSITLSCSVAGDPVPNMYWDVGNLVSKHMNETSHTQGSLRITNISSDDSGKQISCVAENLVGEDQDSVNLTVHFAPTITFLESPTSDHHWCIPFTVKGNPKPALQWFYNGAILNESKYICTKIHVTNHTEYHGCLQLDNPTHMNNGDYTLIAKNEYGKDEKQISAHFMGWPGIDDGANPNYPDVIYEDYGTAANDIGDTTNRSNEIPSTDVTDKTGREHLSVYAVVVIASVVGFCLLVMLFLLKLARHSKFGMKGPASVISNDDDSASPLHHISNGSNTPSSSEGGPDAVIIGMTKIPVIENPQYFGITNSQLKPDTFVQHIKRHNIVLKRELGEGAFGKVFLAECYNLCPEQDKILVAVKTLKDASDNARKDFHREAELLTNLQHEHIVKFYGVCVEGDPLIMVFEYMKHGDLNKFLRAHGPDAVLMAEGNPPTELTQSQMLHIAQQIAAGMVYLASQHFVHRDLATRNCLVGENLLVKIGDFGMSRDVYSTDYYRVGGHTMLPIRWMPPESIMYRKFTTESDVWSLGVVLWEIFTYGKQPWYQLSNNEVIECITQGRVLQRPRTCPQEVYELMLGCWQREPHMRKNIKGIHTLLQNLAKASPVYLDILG
Source text: as §1, §2

TRKC = biological target: T4, TRKC (Homo sapiens, UniProt Q16288); experiment: HTRF KinEASE-TK kinase activity inhibition assay, TRKC; assay type: biochemical; settings: ATP 50 µM
T4 construct: purchased Carna bioscience 08-197
T4 sequence (Q16288 32-839): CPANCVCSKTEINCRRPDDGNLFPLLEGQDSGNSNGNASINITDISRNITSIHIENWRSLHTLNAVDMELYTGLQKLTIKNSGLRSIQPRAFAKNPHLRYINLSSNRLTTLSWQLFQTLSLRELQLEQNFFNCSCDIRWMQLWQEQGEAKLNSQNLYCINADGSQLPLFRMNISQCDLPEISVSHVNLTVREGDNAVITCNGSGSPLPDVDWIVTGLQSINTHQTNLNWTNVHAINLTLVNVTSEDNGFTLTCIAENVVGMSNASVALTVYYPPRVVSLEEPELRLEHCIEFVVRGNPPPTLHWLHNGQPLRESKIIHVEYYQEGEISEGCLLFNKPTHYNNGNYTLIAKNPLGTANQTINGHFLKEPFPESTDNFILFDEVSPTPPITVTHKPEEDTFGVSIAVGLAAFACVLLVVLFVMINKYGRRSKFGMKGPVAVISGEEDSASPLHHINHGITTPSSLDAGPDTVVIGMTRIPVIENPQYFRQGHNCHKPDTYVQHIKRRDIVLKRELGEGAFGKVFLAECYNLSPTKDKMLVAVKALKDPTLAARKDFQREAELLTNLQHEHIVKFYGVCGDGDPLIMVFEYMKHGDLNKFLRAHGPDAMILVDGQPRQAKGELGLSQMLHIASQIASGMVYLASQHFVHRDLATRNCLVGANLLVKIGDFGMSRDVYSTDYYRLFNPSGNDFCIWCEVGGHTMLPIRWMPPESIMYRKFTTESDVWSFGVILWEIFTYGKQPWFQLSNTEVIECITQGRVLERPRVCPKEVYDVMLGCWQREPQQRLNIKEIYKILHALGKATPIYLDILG
Source text: as §1, §2

[1] = Pharmacokinetic study on ICR mice (plasma, LC-MS/MS); assay type: in vivo; settings: male, mouse; for bioavailability: 5 mg/kg oral intake vs 1 mg/kg injection, read-out: Bioavailability F(%); for AUC(0-inf): read-out: Area under curve AUC0-∞; for Cmax: read-out: Blood concentration Cmax; for half-life: read-out: Half-life T1/2(h) (converted); for clearance: read-out: Clearance rate
Method: ICR mice, male, 29.0 g to 33.8g, purchased from Beijing Charles River Laboratory Animal Technology Co., Ltd.
Intravenous injection group: an appropriate amount of drug was weighed, and added with mixed solvent (DMA: 30% Solutol HS-15: Saline = 10: 10: 80 (v/v/v)) to prepare the drug with a final concentration of 0.2 mg/mL.
Oral gavage administration group: an appropriate amount of drug was weighed, added with an appropriate amount of sodium carboxymethyl cellulose (CMC-Na, containing 0.5% Tween 80), vortex shaked, and ultrasonically prepared into […] suspension.
For ICR mice, each compound to be tested was divided into an intravenous injection group (9 mice in each group) and an intragastric group (9 mice in each group). The ICR mice were fasted overnight and then administered by orbital intravenous injection (administration dose of 1 mg/kg, and administration volume of 5 mL/kg) and administered by intragastric injection (administration dose of 5 mg/kg, and administration volume of 10 mL/kg), and ate 4 hours after administration.
About 0.2 mL of blood was collected via jugular vein before administration and 0.083 hour, 0.25 hour, 0.5 hour, 1 hour, 2 hours, 4 hours, 8 hours, 12 hours and 24 hours after administration, and heparin sodium was used for anticoagulation. The collected blood samples were placed on ice, and plasma was separated by centrifugation (centrifugation condition: 1500 g, 10 minutes). The collected plasma was stored at-40°C to -20°C before analysis.
LC-MS/MS was used to determine the contents of different compounds to be tested in mouse plasma after intravenous injection and intragastric administration.
The pharmacokinetic parameters of the compounds of the present invention and the positive control can be seen in Table 8. Table 8 Results of pharmacokinetic parameters

TRKA(G667C) = biological target: T5, TRKA(G667C) (Homo sapiens, UniProt P04629, G667C); experiment: HTRF KinEASE-TK kinase activity inhibition assay, TRKA(G667C); assay type: biochemical; settings: ATP 1 µM
T5 construct: purchased SignalChem N16-12CG-10
T5 sequence (P04629 33-796 G667C): as the sequence (P04629 33-796) above, with G635C counted along it
Source text: as §1, §2

TRKC(G623R) = biological target: T6, TRKC(G623R) (Homo sapiens, UniProt Q16288, G623R); experiment: HTRF KinEASE-TK kinase activity inhibition assay, TRKC(G623R); assay type: biochemical; settings: ATP 100 µM
T6 construct: purchased SignalChem N18-12CH-10
T6 sequence (Q16288 32-839 G623R): as the sequence (Q16288 32-839) above, with G592R counted along it
Source text: as §1
as §2, with “Then, an anti-phosphorylated tyrosine antibody coupled with a europium compound and streptavidin coupled with modified allophycocyanin XL665 were added to the reaction, and continuously incubated with shaking at room temperature for 1 hour.” left out, “Table 1 IC50 data of the compounds of the present invention on TRK enzyme activity inhibition” left out

[2] = intravenous, 1 mg/kg, injection

Row | Structure (SMILES) | IC50 (TRKA) | IC50 (TRKA(G595R)) | IC50 (TRKB) | IC50 (TRKC) | IC50 (TRKA(G667C)) | other results
1 | C[C@H]1Nc2ccn3ncc(c3n2)C(=O)NC[C@]2(C)COc3cc(F)cc1c3O2 [Example 23, (2R,14R)-19-fluoro-2,14-dimethyl-16,22-dioxa-3,5 ,7,8,12-pentaazapentacyclo[12.6.2.2^4,7.0^6,10.0^17,21]te tracosa-1(20),4,6(10),8,17(21),18,23-heptaen-11-one] | 4.83 nM | 15.3 nM | – | – | – | –
2 | C[C@H]1CNC(=O)c2cnn3ccc(nc23)N[C@H](C)c2cc(F)ccc2O1 [repotrectinib, reference compound] | – | – | – | – | – | bioavailability [1]: 13%; AUC(0-inf) ([1]; 5 mg/kg, oral intake): 530 ng·h/mL; Cmax ([1]; 5 mg/kg, oral intake): 154 ng/mL; half-life ([1]; 5 mg/kg, oral intake): 2.93 h; AUC(0-inf) [1, 2]: 824 ng·h/mL; clearance [1, 2]: 20.2 mL/min/kg; half-life [1, 2]: 3.9 h
3 | C[C@H]1Nc2ccn3ncc(c3n2)C(=O)NC[C@]2(C)Cc3cc(F)c(F)c1c3O2 [Example 11, (3R,11S)-5,6-difluoro-3,11-dimethyl-10-oxa-2,13,1 7,18,21-pentaazapentacyclo[13.5.2.1^8,11.0^4,9.0^18,22]t ricosa-1(21),4,6,8,15(22),16,19-heptaen-14-one] | 4.5 nM | – | – | 0.63 nM | – | –
4 | C[C@H]1Nc2ccn3ncc(c3n2)C(=O)NCC2(CF)Cc3cc(F)cc1c3O2 (stereo partly drawn) [Example 18, (3R)-6-fluoro-11-(fluoromethyl)-3-methyl-10-oxa-2,13,17,18,21-pentaazapentacyclo[13.5.2.1^8,11.0^4,9. 0^18,22]tricosa-1(21),4,6,8,15(22),16,19-heptaen-14-one] | 0.63 nM | 3.9 nM | 0.17 nM | 1.37 nM | 6.11 nM | –
5 | C[C@H]1Nc2ccc3ncc(n3n2)C(=O)NC[C@@]2(C)Cc3cc(F)cc1c3O2 [Example 26, (3R,11R)-6-fluoro-3,11-dimethyl-10-oxa-2,13,17,21,22-pentaazapentacyclo[13.5.2.1^8,11.0^4,9.0^18 ,22]tricosa-1(21),4,6,8,15,17,19-heptaen-14-one] | 0.97 nM | 8.6 nM | 1.3 nM | 0.8 nM | 15.5 nM | –
6 | COC[C@@]12CNC(=O)c3cnn4ccc(nc34)N[C@H](C)c3cc(F)cc(c3O1)C2 [Example 15, (3R,11R)-6-fluoro-11-(methoxymethyl)-3-methyl-10-oxa-2,13,17,18,21-pentaazapentacyclo[13.5.2.1 ^8,11.0^4,9.0^18,22]tricosa-1(21),4,6,8,15(22),16,19-hept aen-14-one] | 2.8 nM | – | – | 0.37 nM | – | –
7 | C[C@H]1Nc2ccn3ncc(c3n2)C(=O)NCC2Cc3cc(F)cc1c3O2 (stereo partly drawn) [Example 1, (3R)-6-fluoro-3-methyl-10-oxa-2,13,17,18,21-pent aazapentacyclo[13.5.2.1^8,11.0^4,9.0^18,22]tricosa-1(21), 4,6,8, 15(22),16, 19-heptaen-14-one] | 1.66 nM | 11.3 nM | 0.29 nM | 0.5 nM | – | –
8 | C[C@H]1Nc2ccn3ncc(c3n2)C(=O)NC[C@@H]2COc3cc(F)cc1c3O2 [Example 7, (2R,14R)-19-fluoro-2-methyl-16,22-dioxa-3,5,7,8, 12-pentaazapentacyclo[12.6.2.2^4,7.0^6,10.0^17,21]tetrac osa-1(20),4,6(10),8,17(21),18,23-heptaen-11-one] | 2.05 nM | 2.65 nM | 0.32 nM | – | 21.1 nM | IC50 (TRKC(G623R)): 25.3 nM

Further compounds by falling IC50 (TRKA), results first:

Row | IC50 (TRKA) | IC50 (TRKA(G595R)) | IC50 (TRKB) | IC50 (TRKC) | IC50 (TRKA(G667C)) | Structure (SMILES) | other results
9 | 18.5 nM | – | – | – | 24.6 nM | C[C@H]1Nc2ccn3ncc(c3n2)C(=O)NCC[C@]2(C)Cc3cc(F)cc1c3O2 [Example 21, (3R,11S)-6-fluoro-3,11-dimethyl-10-oxa-2,14,18,1 9,22-pentaazapentacyclo[14.5.2.1^8,11.0^4,9.0^19,23]tetra cosa-1(22),4,6,8,16(23),17,20-heptaen-15-one] | –
10 | 5.9 nM | – | – | – | 4.2 nM | C[C@H]1Nc2ccn3ncc(c3n2)C(=O)NCC[C@@]2(C)Cc3cc(F)cc1c3O2 [Example 20, (3R,11R)-6-fluoro-3,11-dimethyl-10-oxa-2,14,18,1 9,22-pentaazapentacyclo[14.5.2.1^8,11.0^4,9.0^19,23]tetra cosa-1(22),4,6,8,16(23),17,20-heptaen-15-one] | –
11 | 3.4 nM | 19.3 nM | 0.25 nM | 1.16 nM | – | C[C@H]1Nc2ccn3ncc(c3n2)C(=O)NCC2(CO)Cc3cc(F)cc1c3O2 (stereo partly drawn) [Example 19, (3R)-6-fluoro-11-(hydroxymethyl)-3-methyl-10-ox a-2,13,17,18,21-pentaazapentacyclo[13.5.2.1^8,11.0^4, 9.0^18,22]tricosa-1(21),4,6,8,15(22),16,19-heptaen-14-one] | –
12 | 1.7 nM | 3.31 nM | 0.33 nM | 0.47 nM | – | C[C@H]1Nc2ccn3ncc(c3n2)C(=O)NCC[C@H]2Cc3cc(F)cc1c3O2 [Example 3, (3R,11R)-6-fluoro-3-methyl-10-oxa-2,14,18,19,22-pentaazapentacyclo[14.5.2.1^8,11.0^4,9.0^19,23]tetracosa-1(22),4,6,8,16(23),17,20-heptaen-15-one] | –
13 | 1.05 nM | 11.3 nM | 0.34 nM | – | – | C[C@H]1Nc2ccn3ncc(c3n2)C(=O)NCCC2=Cc3cc(F)cc1c3O2 [Example 6, (3R)-6-fluoro-3-methyl-10-oxa-2,14,18,19,22-pent aazapentacyclo[14.5.2.1^8,11.0^4,9.0^19,23]tetracosa-1(2 2),4,6,8,11(24),16(23),17,20-octaen-15-one] | –
14 | 0.92 nM | 4.31 nM | 0.76 nM | 2.63 nM | – | C[C@H]1Nc2ccn3ncc(c3n2)C(=O)NCC2(C)Cc3cc(F)cc1c3O2 (stereo partly drawn) [Example 5, (3R)-6-fluoro-3,11-dimethyl-10-oxa-2,13,17,18,21-pentaazapentacyclo[13.5.2.1^8,11.0^4,9.0^18,22]tricosa-1 (21),4,6,8,15(22),16,19-heptaen-14-one] | bioavailability [1]: 65%; AUC(0-inf) ([1]; 5 mg/kg, oral intake): 6040 ng·h/mL; Cmax ([1]; 5 mg/kg, oral intake): 2600 ng/mL; half-life ([1]; 5 mg/kg, oral intake): 2.03 h; AUC(0-inf) [1, 2]: 1850 ng·h/mL; clearance [1, 2]: 9 mL/min/kg; half-life [1, 2]: 1.79 h; IC50 (TRKC(G623R)): 14.5 nM
